# Measured values as given in patent US5328927A, “Hetercyclic compounds, processes for their preparation and pharmaceutical compositions containing them” (Merck Sharpe & Dohme, Ltd., priority 1992, dated 1994).
# Structures can show the parent of a compound that is named as a salt.
# Target: human neurokinin-1-receptor (NK1R) (Homo sapiens, UniProt P25103)
# Experiment: biochemical
# Conditions: 125I-SP binding; cloned human NK1R expressed in COS or CHO; 1 hour at 4° C. or room temperature
# Protocol: To express the cloned human neurokinin-1-receptor (NK1R) transiently in COS, the cDNA for the human NK1R was cloned into the expression vector pCDM9 which was derived from pCDM8 (INVITROGEN) by inserting the ampicillin resistance gene (nucleotide 1973 to 2964 from BLUESCRIPT SK+ (trademark, [sequence], La Jolla, Calif., USA)) into the Sac II site. Transfection of 20 ug of the plasmid DNA into 10 million COS cells was achieved by electroporation in 800 μl of transfection buffer (135 mM NaCl, 1.2 mM CaCl2, 1.2 mM MgCl2, 2.4 mM K2 HPO4, 0.6 mM KH2 PO4, 10 mM glucose, 10 mM N-2-hydroxyethyl-piperazine-N'-2-ethane sulphonic acid (HEPES) pH 7.4) at 260 V and 950 μF using the IBI GENEZAPPER (trademark IBI, New Haven, Conn., USA). The cells were incubated in 10% fetal calf serum, 2 mM glutamine, 100 U/ml penicillin-streptomycin, and 90% DMEM media (GIBCO, Grand Island, N.Y., USA) in 5% CO2 at 37° C. for three days before the binding assay.
# The binding assay of human NK1R expressed in either COS or CHO cells is based on the use of ^125 I-substance P (^125 I-SP from DU PONT, Boston, Mass.) as a radioactively labeled ligand which competes with unlabeled substance P or any other ligand for binding to the human NK1R. […] In the binding assay, 200 μl of cells were added to a tube containing 20 μl of 1.5 to 2.5 nM of ^125 I-SP and 20 μl of unlabeled substance P or any other test compound. The tubes were incubated at 4° C. or at room temperature for 1 hour with gentle shaking. The bound radioactivity was separated from unbound radioactivity by GF/C filter (BRANDEL, Gaithersburg, Md.) which was pre-wetted with 0.1% polyethylenimine. The filter was washed with 3 ml of wash buffer (50 mM Tris pH 7.5, 5 mM MnCl2, 150 mM NaCl) three times and its radioactivity was determined by gamma counter.
# Sequence of human neurokinin-1-receptor (NK1R) (P25103 whole entry): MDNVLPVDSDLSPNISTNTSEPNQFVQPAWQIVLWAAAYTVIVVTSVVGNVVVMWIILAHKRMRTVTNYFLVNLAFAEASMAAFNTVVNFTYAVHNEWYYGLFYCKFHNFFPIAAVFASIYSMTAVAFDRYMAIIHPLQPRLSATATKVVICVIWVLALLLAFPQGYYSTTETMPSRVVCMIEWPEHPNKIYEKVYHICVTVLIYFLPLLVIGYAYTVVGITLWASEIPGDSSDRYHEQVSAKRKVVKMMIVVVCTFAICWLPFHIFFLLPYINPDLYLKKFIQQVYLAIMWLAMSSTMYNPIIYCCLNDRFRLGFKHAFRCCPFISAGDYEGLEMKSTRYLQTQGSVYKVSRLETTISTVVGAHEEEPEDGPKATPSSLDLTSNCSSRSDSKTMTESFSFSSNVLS
row,Compound,IC50 [µM]
1,"CN(C)CCCC(=O)NC(Cc1c[nH]c2ccccc12)C(=O)CCc1cc(C(F)(F)F)cc(C(F)(F)F)c1 (stereo not drawn) [Example 17, 5-(3,5-Bistrifluoromethylphenyl)-2-(4-(N,N-dimethylamino)butyramido)-1-(3-indolyl)-3-pentanone Hydrochloride]",0.0004
2,"NC(Cc1c[nH]c2ccccc12)C(=O)CCc1cc(C(F)(F)F)cc(C(F)(F)F)c1 (stereo not drawn) [Example 11, 2-Amino-5-(3,5-bistrifluoromethylphenyl)-1-(3-indolyl)-3-pentanone Hydrochloride]",0.015
3,"CC(=O)NC(Cc1csc2ccccc12)C(CCc1cc(C(F)(F)F)cc(C(F)(F)F)c1)=NO (single isomer, unassigned) [14 (Isomer A), 2-Acetamido-1-(3-benzo[b]thienyl)-5-(3,5-bistrifluoromethylphenyl)-3-oximinopentane]",0.2
4,"CC(=O)NC(Cc1ccc(Cl)c(Cl)c1)C(=O)CCc1cc(C(F)(F)F)cc(C(F)(F)F)c1 (stereo not drawn) [Example 15, 2-Acetamido-5-(3,5-bistrifluoromethylphenyl)-1-(3,4-dichlorophenyl)-3-pentanone]",0.04
5,"CN(C)CCCCC(=O)NC(Cc1c[nH]c2ccccc12)C(=O)CCc1cc(C(F)(F)F)cc(C(F)(F)F)c1 (stereo not drawn) [Example 18, 5-(3,5-Bistrifluoromethylphenyl)-2-(5-(N,N-dimethylamino)pentanamido)-1-(3-indolyl)-3-pentanone]",0.0006
6,"CC(CC(=O)NC(Cc1c[nH]c2ccccc12)C(=O)CCc1cc(C(F)(F)F)cc(C(F)(F)F)c1)c1ccccc1 (stereo not drawn) [Example 20, 5-(3,5-Bistrifluoromethylphenyl)-2-(3-phenylbutyramido)-1-(3-indolyl)-3-pentanone]",0.002
7,"COC(CCc1cc(C(F)(F)F)cc(C(F)(F)F)c1)C(Cc1csc2ccccc12)NC(C)=O (single isomer, unassigned) [6 (Isomer B), 2-Acetamido-1-(3-benzo[b]thienyl)-5-(3,5-bistrifluoromethylphenyl)-3-methoxypentane]",0.03
8,"CC(C)(C)OC(=O)NC(Cc1c[nH]c2ccccc12)C(=O)CCc1cc(C(F)(F)F)cc(C(F)(F)F)c1 (stereo not drawn) [Example 10, 5-(3,5-Bistrifluoromethylphenyl)-2-t-butyloxycarbonylamino-1-(3-indolyl)-3-pentanone]",0.04
9,"CC(=O)NC(Cc1csc2ccccc12)C(O)C=Cc1cc(C(F)(F)F)cc(C(F)(F)F)c1 (single isomer, unassigned) [2 (Isomer B), 2-Acetamido-1-(3-benzo[b]thienyl)-5-(3,5-bistrifluoromethylphenyl)-4-penten-3-ol]",0.3
10,"CC(=O)NC(Cc1csc2ccccc12)C(O)C=Cc1cc(C(F)(F)F)cc(C(F)(F)F)c1 (single isomer, unassigned) [2 (Isomer A), 2-Acetamido-1-(3-benzo[b]thienyl)-5-(3,5-bistrifluoromethylphenyl)-4-penten-3-ol]",0.7
11,"CC(=O)NC(Cc1csc2ccccc12)C(=O)CCc1cc(C(F)(F)F)cc(C(F)(F)F)c1 (stereo not drawn) [Example 4, 2-Acetamido-1-(3-benzo[b]thienyl)-5-(3,5-bistrifluoromethylphenyl)-3-pentanone]",0.02
12,"O=C(NC(Cc1c[nH]c2ccccc12)C(=O)CCc1cc(C(F)(F)F)cc(C(F)(F)F)c1)C1CC1 (stereo not drawn) [Example 19, 5-(3,5-Bistrifluoromethylphenyl)-2-(cyclopropylcarboxamido)-1-(3-indolyl)-3-pentanone]",0.002
13,"O=C(NC(Cc1c[nH]c2ccccc12)C(=O)CCc1cc(C(F)(F)F)cc(C(F)(F)F)c1)c1ccccc1 (stereo not drawn) [Example 13, 2-Benzamido-5-(3,5-bistrifluoromethylphenyl)-1-(3-indolyl)-3-pentanone]",0.014
14,"COC(CCc1cc(C(F)(F)F)cc(C(F)(F)F)c1)C(Cc1csc2ccccc12)NC(C)=O (single isomer, unassigned) [6 (Isomer A), 2-Acetamido-1-(3-benzo[b]thienyl)-5-(3,5-bistrifluoromethylphenyl)-3-methoxypentane]",0.5
15,"CN(C)CC(=O)NC(Cc1csc2ccccc12)C(=O)CCc1cc(C(F)(F)F)cc(C(F)(F)F)c1 (stereo not drawn) [Example 9, 1-(3-Benzo[b]thienyl)-5-(3,5-bistrifluoromethylphenyl)-2-(N,N-dimethylglycinamido)-3-pentanone Hydrochloride]",0.03
16,"CC(=O)NC(Cc1csc2ccccc12)C(CCc1cc(C(F)(F)F)cc(C(F)(F)F)c1)=NO (single isomer, unassigned) [14 (Isomer B), 2-Acetamido-1-(3-benzo[b]thienyl)-5-(3,5-bistrifluoromethylphenyl)-3-oximinopentane]",0.3
17,"CC(=O)NC(Cc1csc2ccccc12)C(O)CCc1cc(C(F)(F)F)cc(C(F)(F)F)c1 (single isomer, unassigned) [5 (Isomer A), 2-Acetamido-1-(3-benzo[b]thienyl)-5-(3,5-bistrifluoromethylphenyl)-3-pentanol]",0.19
18,"CC(=O)NC(Cc1csc2ccccc12)C(=O)C=Cc1cc(C(F)(F)F)cc(C(F)(F)F)c1 (stereo not drawn) [Example 1, 2-Acetamido-1-(3-benzo[b]thienyl)-5-(3,5-bistrifluoromethylphenyl)-4-penten-3-one]",0.35
19,"CC(=O)NC(Cc1csc2ccccc12)C(O)CCc1cc(C(F)(F)F)cc(C(F)(F)F)c1 (single isomer, unassigned) [5 (Isomer B), 2-Acetamido-1-(3-benzo[b]thienyl)-5-(3,5-bistrifluoromethylphenyl)-3-pentanol]",0.5
20,"COC(C=Cc1cc(C(F)(F)F)cc(C(F)(F)F)c1)C(Cc1csc2ccccc12)NC(C)=O (single isomer, unassigned) [3 (Isomer B), 2-Acetamido-1-(3-benzo[b]thienyl)-5-(3,5-bistrifluoromethylphenyl)-3-methoxy-4-pentene]",0.35

# Same assay, conditions: 125I-SP binding; cloned human NK1R expressed in COS or CHO; 1 hour at 4° C. or room temperature; cell prints μM in nM column
row,Compound,IC50 [µM]
1,"COC(C=Cc1cc(C(F)(F)F)cc(C(F)(F)F)c1)C(Cc1csc2ccccc12)NC(C)=O (single isomer, unassigned) [3 (Isomer A), 2-Acetamido-1-(3-benzo[b]thienyl)-5-(3,5-bistrifluoromethylphenyl)-3-methoxy-4-pentene]",> 1
